Laboratory results taken from PubChem BioAssay AID192 (DTP/NCI, 2004).
“And” between values parts separate entries of the source, which are not always exact repeats. Identical values can stand only once. Toxic doses and inconclusive results are not listed. Peptide text beside a SMILES is read from it.

Tested on: BDF1 mice, B16 melanoma ip, median survival T/C
Experiment: NCI In Vivo Anticancer Drug Screen. Data for tumor model B16 Melanoma (intraperitoneal) in B6D2F1 (BDF1) mice
Details: endpoint: median survival time, higher = longer survival
Summary of the method: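 Transplantable tumor model; survival or tumor size measured; reported as T/C, treated over vehicle control.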

[1] = dose: 100.0 mg/kg/injection, schedule: Q01DX009 (ip), vehicle: Klucel (hydroxypropylcellulose) (HPC)
[2] = dose: 200.0 mg/kg/injection, schedule: Q01DX009 (ip), vehicle: Klucel (hydroxypropylcellulose) (HPC)
[3] = dose: 400.0 mg/kg/injection, schedule: Q01DX009 (ip), vehicle: Klucel (hydroxypropylcellulose) (HPC)
[4] = dose: 50.0 mg/kg/injection, schedule: Q01DX009 (ip), vehicle: saline
[5] = dose: 100.0 mg/kg/injection, schedule: Q01DX009 (ip), vehicle: saline
[6] = dose: 200.0 mg/kg/injection, schedule: Q01DX009 (ip), vehicle: saline
[7] = dose: 400.0 mg/kg/injection, schedule: Q01DX009 (ip), vehicle: saline
[8] = dose: 3.12 mg/kg/injection, schedule: Q01DX009 (ip), vehicle: saline
[9] = dose: 6.25 mg/kg/injection, schedule: Q01DX009 (ip), vehicle: saline
[10] = dose: 25.0 mg/kg/injection, schedule: Q01DX009 (ip), vehicle: saline
[11] = dose: 12.5 mg/kg/injection, schedule: Q01DX009 (ip), vehicle: saline with Tween-80
[12] = dose: 25.0 mg/kg/injection, schedule: Q01DX009 (ip), vehicle: saline with Tween-80
[13] = dose: 50.0 mg/kg/injection, schedule: Q01DX009 (ip), vehicle: Klucel (hydroxypropylcellulose) (HPC)
[14] = dose: 50.0 mg/kg/injection, schedule: Q01DX009 (ip), vehicle: saline with Tween-80
[15] = dose: 100.0 mg/kg/injection, schedule: Q01DX009 (ip), vehicle: saline with Tween-80
[16] = dose: 200.0 mg/kg/injection, schedule: Q01DX009 (ip), vehicle: saline with Tween-80
[17] = dose: 25.0 mg/kg/injection, schedule: Q01DX009 (ip), vehicle: Klucel (hydroxypropylcellulose) (HPC)
[18] = dose: 12.5 mg/kg/injection, schedule: Q01DX009 (ip), vehicle: Klucel (hydroxypropylcellulose) (HPC)
[19] = dose: 6.25 mg/kg/injection, schedule: Q01DX009 (ip), vehicle: Klucel (hydroxypropylcellulose) (HPC)

Structure (SMILES): C/C=C\C1OC1(C)c1cc(=O)c2c(C)cc3c(c2o1)C(=O)c1c(O)c(C2CC(C)(N(C)C)C(OC(C)=O)C(C)O2)cc(C2CC(N(C)C)C(O)C(C)O2)c1C3=O (stereo unspecified)
- T/C (dose: 0.1 mg/kg/injection, schedule: Q01DX009 (ip), vehicle: saline): 100 % of control
- T/C (dose: 0.2 mg/kg/injection, schedule: Q01DX009 (ip), vehicle: saline): 100 % of control
- T/C (dose: 0.35 mg/kg/injection, schedule: Q01DX009 (ip), vehicle: saline with Tween-80): 88 % of control
- T/C (dose: 0.4 mg/kg/injection, schedule: Q01DX009 (ip), vehicle: saline): 100 % of control
- T/C (dose: 0.7 mg/kg/injection, schedule: Q01DX009 (ip), vehicle: saline with Tween-80): 95 % of control
- T/C (dose: 0.8 mg/kg/injection, schedule: Q01DX009 (ip), vehicle: saline): 106 % of control

Structure (SMILES): CC(OC(C)c1ccccc1)c1ccccc1 (stereo unspecified)
- T/C [1]: 113 % of control
- T/C [2]: 106 % of control
- T/C [3]: 103 % of control

Structure (SMILES): CC(NC(=O)C(C)NC(=O)C(N)CCC(=O)O)C(=O)O (stereo not drawn) (H-Glu-Ala-Ala-OH; configuration not given here)
- T/C [4]: 111 % of control
- T/C [5]: 96 % of control
- T/C [6]: 105 % of control
- T/C [7]: 94 % of control

Structure (SMILES): CC(CN1CCN(CCOCCO)CC1)CN1c2ccccc2Sc2ccccc21 (stereo unspecified)
- T/C (dose: 1.56 mg/kg/injection, schedule: Q01DX009 (ip), vehicle: saline): 108 % of control
- T/C [8]: 97 % of control
- T/C [9]: 102 % of control
- T/C [10]: 100 % of control and 101 % of control

Structure (SMILES): CC1=NCCc2c1cc1c([nH]c3ccccc31)c2C
- T/C [11]: 105 % of control
- T/C [12]: 110 % of control

Structure (SMILES): O=S(=O)([O-])NC1CCCCC1.O=S(=O)([O-])NC1CCCCC1.[Hg+2].[Hg+2].[Hg+2].[O-2].[O-2]
- T/C (dose: 0.12 mg/kg/injection, schedule: Q01DX009 (ip), vehicle: saline): 98 % of control
- T/C (dose: 0.25 mg/kg/injection, schedule: Q01DX009 (ip), vehicle: saline): 105 % of control
- T/C (dose: 0.5 mg/kg/injection, schedule: Q01DX009 (ip), vehicle: saline): 98 % of control
- T/C (dose: 1.0 mg/kg/injection, schedule: Q01DX009 (ip), vehicle: saline): 90 % of control

Structure (SMILES): CCC[N+](CCC)=c1ccc2nc3c(C)cc(N(CC)CC)cc3sc-2c1
- T/C (dose: 0.15 mg/kg/injection, schedule: Q01DX009 (ip), vehicle: saline): 102 % of control
- T/C (dose: 0.3 mg/kg/injection, schedule: Q01DX009 (ip), vehicle: saline): 102 % of control
- T/C (dose: 0.6 mg/kg/injection, schedule: Q01DX009 (ip), vehicle: saline with Tween-80): 92 % of control
- T/C (dose: 0.6 mg/kg/injection, schedule: Q01DX009 (ip), vehicle: saline): 102 % of control
- T/C (dose: 1.2 mg/kg/injection, schedule: Q01DX009 (ip), vehicle: saline): 105 % of control

Structure (SMILES): CC(C)CCC(C)C1CCC2C3CC([N+](=O)[O-])=C4CC(OC(=O)c5ccccc5)CCC4(C)C3CCC12C (stereo unspecified)
- T/C [1]: 105 % of control
- T/C [2]: 110 % of control
- T/C [3]: 105 % of control

Structure (SMILES): O=C(O)C(Cc1cc(I)c(O)c(I)c1)c1ccccc1 (stereo unspecified)
- T/C [13]: 100 % of control
- T/C [1]: 109 % of control
- T/C [2]: 100 % of control

Structure (SMILES): CN1NCc2cncnc21
- T/C [14]: 107 % of control
- T/C [15]: 101 % of control
- T/C [16]: 97 % of control

Structure (SMILES): CC(C)n1c(=S)[nH]c2ccccc2c1=O
- T/C (dose: 16.5 mg/kg/injection, schedule: Q01DX009 (ip), vehicle: saline with Tween-80): 102 % of control
- T/C [12]: 94 % of control
- T/C (dose: 37.5 mg/kg/injection, schedule: Q01DX009 (ip), vehicle: saline with Tween-80): 100 % of control
- T/C [1]: 95 % of control
- T/C [15]: 87 % of control
- T/C [5]: 117 % of control
- T/C [2]: 90 % of control

Structure (SMILES): O=NN(CCCl)C(=O)Nc1c[nH]c2ccccc12
- T/C [17]: 153 % of control and 158 % of control
- T/C [13]: 157 % of control and 158 % of control and 165 % of control
- T/C [1]: 162 % of control and 174 % of control
- T/C [2]: 174 % of control

Structure (SMILES): C1OC1CN1CCN(CC2CO2)CC1 (stereo unspecified)
- T/C (dose: 8.0 mg/kg/injection, schedule: Q01DX009 (ip), vehicle: saline with Tween-80): 121 % of control
- T/C (dose: 16.0 mg/kg/injection, schedule: Q01DX009 (ip), vehicle: saline with Tween-80): 119 % of control

Structure (SMILES): COCC1OC(OC2C3=C(C(C)C)CCC3(C)/C=C3\C(CCC3(O)COC)C(C)C2O)C(O)C2OC3OC12OC3(C)C1CO1 (stereo unspecified)
- T/C (dose: 1.5 mg/kg/injection, schedule: Q01DX009 (ip), vehicle: Klucel (hydroxypropylcellulose) (HPC)): 93 % of control
- T/C (dose: 3.0 mg/kg/injection, schedule: Q01DX009 (ip), vehicle: Klucel (hydroxypropylcellulose) (HPC)): 89 % of control
- T/C (dose: 6.0 mg/kg/injection, schedule: Q01DX009 (ip), vehicle: Klucel (hydroxypropylcellulose) (HPC)): 98 % of control
- T/C (dose: 12.0 mg/kg/injection, schedule: Q01DX009 (ip), vehicle: Klucel (hydroxypropylcellulose) (HPC)): 91 % of control
- T/C (dose: 24.0 mg/kg/injection, schedule: Q01DX009 (ip), vehicle: Klucel (hydroxypropylcellulose) (HPC)): 105 % of control

Structure (SMILES): COc1ccc(NC(=O)Nc2ccccc2OC)cc1
- T/C [15]: 102 % of control
- T/C [16]: 115 % of control
- T/C (dose: 400.0 mg/kg/injection, schedule: Q01DX009 (ip), vehicle: saline with Tween-80): 101 % of control

Structure (SMILES): C=C1Sc2ccccc2N1C
- T/C [18]: 96 % of control
- T/C [17]: 94 % of control

Structure (SMILES): C[C@]12CC[C@H]3[C@@H](CC[C@]4(O)C[C@@H](O)CC[C@]34C=O)[C@@]1(O)CC[C@@H]2C1=CC(=O)OC1
- T/C [11]: 104 % of control
- T/C [12]: 92 % of control
- T/C [14]: 97 % of control
- T/C [15]: 97 % of control
- T/C [16]: 90 % of control

Structure (SMILES): CCCCCCC1N(Cc2ccccc2N(C)C)CCCN1Cc1ccccc1N(C)C
- T/C (dose: 75.0 mg/kg/injection, schedule: Q01DX009 (ip), vehicle: saline): 97 % of control

Structure (SMILES): O=C(O)c1ccc(S(=O)(=O)N(Cl)Cl)cc1
- T/C [5]: 110 % of control
- T/C [6]: 113 % of control
- T/C [7]: 104 % of control

Structure (SMILES): Cc1ccc[n+](CCc2c[nH]c3ccccc23)c1
- T/C [11]: 111 % of control
- T/C [12]: 99 % of control
- T/C [14]: 95 % of control

Structure (SMILES): CCN(Cc1ccc(Cl)c(Cl)c1)c1ccc2nc(N)nc(N)c2c1C
- T/C (dose: 3.12 mg/kg/injection, schedule: Q01DX009 (ip), vehicle: distilled water + Tween-80): 110 % of control
- T/C (dose: 3.13 mg/kg/injection, schedule: Q01DX009 (ip), vehicle: Klucel (hydroxypropylcellulose) (HPC)): 89 % of control
- T/C [19]: 94 % of control
- T/C (dose: 6.25 mg/kg/injection, schedule: Q01DX009 (ip), vehicle: distilled water + Tween-80): 115 % of control
- T/C (dose: 12.5 mg/kg/injection, schedule: Q01DX009 (ip), vehicle: distilled water + Tween-80): 122 % of control

Structure (SMILES): [Cl][Pt+2][Cl].[NH-]C1CCCCC1.[NH-]C1CCCCC1
- T/C [19]: 105 % of control
- T/C [18]: 110 % of control
- T/C [17]: 92 % of control and 117 % of control
- T/C [13]: 97 % of control

Structure (SMILES): C/C=C/C=C\C1OC(O)([C@H](CC)C(=O)NC/C=C/C=C(\C)[C@H](OC)C(C)C2OC(\C=C/C=C/C=C(\C)C(=O)c3c(O)ccn(C)c3=O)[C@H](O)[C@@H]2O)C(O)C(O)C1(C)C (stereo partly specified)
- T/C [10]: 102 % of control
- T/C [4]: 89 % of control
- T/C [5]: 91 % of control
- T/C [6]: 97 % of control

Structure (SMILES): CCCCCCCCCCCCO[P+](=O)OCCCCCCCCCCCC
- T/C [5]: 88 % of control

Structure (SMILES): CN(C)C=Nc1ccccc1
- T/C [1]: 100 % of control
- T/C [2]: 112 % of control
- T/C [3]: 109 % of control

Structure (SMILES): CCCCCCCCCCCCCCCCP(=O)(OCCOCCCCCC)OCCOCCCCCC
- T/C [8]: 103 % of control
- T/C [9]: 116 % of control
- T/C (dose: 12.5 mg/kg/injection, schedule: Q01DX009 (ip), vehicle: saline): 109 % of control
- T/C [10]: 102 % of control
- T/C [4]: 94 % of control

Structure (SMILES): [N-]=[N+]=C1C(=O)NN=C1c1ccccc1
- T/C [1]: 105 % of control

Structure (SMILES): CC1CCCC(C)N1C1=NCCO1 (stereo unspecified)
- T/C (dose: 5.0 mg/kg/injection, schedule: Q01DX009 (ip), vehicle: saline with Tween-80): 100 % of control
- T/C (dose: 5.0 mg/kg/injection, schedule: Q04DX003 (ip), vehicle: saline with Tween-80): 100 % of control
- T/C (dose: 10.0 mg/kg/injection, schedule: Q01DX009 (ip), vehicle: saline with Tween-80): 112 % of control
- T/C (dose: 10.0 mg/kg/injection, schedule: Q04DX003 (ip), vehicle: saline with Tween-80): 97 % of control
- T/C (dose: 20.0 mg/kg/injection, schedule: Q01DX009 (ip), vehicle: saline with Tween-80): 92 % of control
- T/C (dose: 20.0 mg/kg/injection, schedule: Q04DX003 (ip), vehicle: saline with Tween-80): 100 % of control
